Reference: patent US10590086B2, “Pharmaceutical compound” (IOmet Pharma Ltd., priority 2014, dated 2020)

Tests used:
TDO = TDO (Homo sapiens, UniProt P48775); assay: A172 kynurenine cell-based assay; set-up: This assay utilised cancer cells which expressed either TDO or IDO; endogenous in cells; host or cells: A172 (human glioblastoma); details: A172 human glioblastoma cells, 48 hours, 500 μM L-tryptophan; read-out: A172 Kynurenine cell based assay pIC50 (converted)
Procedure: (§1) Exemplary compounds of the invention were prepared, and tested to determine their effect as TDO and/or IDO inhibitors. Two different assays were employed: 1. a cell-based assay for detecting the effect of test compounds on kynurenine production in two different cancer cell types. This assay utilised cancer cells which expressed either TDO or IDO and as such was used as a means of testing compound activity at these two enzymes in a cell-based context. 2. a TDO and IDO biochemical coupled assay which utilised recombinantly produced and purified TDO and IDO enzymes in combination with the enzyme formamidase. This coupled enzyme system allowed conversion of N-formylkynurenine produced by TDO or IDO activity to kynurenine which was then quantified by fluorescence following addition of Erhlich's Reagent The protocols for these are set out below.
(§2) Cell Based Assay for Detection of Kynurenine Produced by TDO and/or IDO
(§3) A172 (human glioblastoma) and SKOV3 (human ovarian adenocarcinoma) cells were seeded in a 96 well plate at 30,000 or 40,000 cells per well respectively in phenol red-free RPMI supplemented with 10% FCS, 2 mM L-glutamine and 500 μM L-tryptophan. IDO expression was induced in the SKOV3 cells by the addition of 500 ng/ml IFN-γ. Cells were incubated at 37° C. with or without the addition of test compound. After 48 hours, the cells were removed by centrifugation and Erhlich's reagent was added to the supernatant. The Erhlich's reagent was incubated for 5 minutes before the absorbance was read at 490 nm.

IDO = IDO (Homo sapiens, UniProt P14902); assay: SKOV3 kynurenine cell-based assay (IDO induced by IFN-γ); set-up: IDO expression was induced in the SKOV3 cells by the addition of 500 ng/ml IFN-γ; endogenous in cells; host or cells: SKOV3 (human ovarian adenocarcinoma), induced with IFN-γ; details: SKOV3 human ovarian adenocarcinoma cells, 500 ng/ml IFN-γ, 48 hours, 500 μM L-tryptophan; read-out: SKOV3 Kynurenine cell based assay pIC50 (converted)
Sequence of IDO (P14902 whole entry): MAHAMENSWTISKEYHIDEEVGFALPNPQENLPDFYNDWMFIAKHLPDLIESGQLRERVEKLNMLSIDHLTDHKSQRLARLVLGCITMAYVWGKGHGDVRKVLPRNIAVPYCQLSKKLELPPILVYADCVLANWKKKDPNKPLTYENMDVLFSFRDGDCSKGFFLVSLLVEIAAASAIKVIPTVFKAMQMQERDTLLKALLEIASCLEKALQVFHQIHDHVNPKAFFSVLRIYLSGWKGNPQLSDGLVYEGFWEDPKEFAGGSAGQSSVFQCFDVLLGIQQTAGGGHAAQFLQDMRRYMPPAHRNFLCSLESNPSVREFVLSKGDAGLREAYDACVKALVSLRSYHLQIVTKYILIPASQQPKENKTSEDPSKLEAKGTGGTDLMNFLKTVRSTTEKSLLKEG
Procedure: as §1, §2, §3

Sequence of TDO (P48775 whole entry): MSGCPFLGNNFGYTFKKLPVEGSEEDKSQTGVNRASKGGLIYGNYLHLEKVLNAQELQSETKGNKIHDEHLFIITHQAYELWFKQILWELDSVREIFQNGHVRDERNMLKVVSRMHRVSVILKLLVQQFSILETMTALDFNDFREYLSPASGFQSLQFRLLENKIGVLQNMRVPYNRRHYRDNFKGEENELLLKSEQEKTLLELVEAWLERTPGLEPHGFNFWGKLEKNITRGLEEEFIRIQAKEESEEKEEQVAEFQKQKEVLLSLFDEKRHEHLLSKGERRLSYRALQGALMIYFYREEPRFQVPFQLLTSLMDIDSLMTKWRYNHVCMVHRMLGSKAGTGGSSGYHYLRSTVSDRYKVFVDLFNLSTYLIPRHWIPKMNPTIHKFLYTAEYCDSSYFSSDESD

SMILES	IC50 (TDO) [µM]	IC50 (IDO) [µM]
O=S1(=O)CCC2CN(c3cc(Cl)cc4[nH]ncc34)CCN21 (centres unmarked) [Compound 89]	< 3.16	3.24 to 31.6
Clc1cc(N2CCN(c3ccccc3)CC2)c2cn[nH]c2c1 [Compound 92]	< 3.16	3.24 to 31.6
CC(=O)N1CCN(c2cc(Cl)cc3[nH]ncc23)CC12CC2 [Compound 93]	< 3.16	3.24 to 31.6
CN1CCN(c2cc(Cl)cc3[nH]ncc23)CC1 [Compound 95]	3.24 to 31.6	> 100
CS(=O)(=O)N1CCN(c2cc(Br)cc3[nH]ncc23)CC1 [Compound 96]	< 3.16	3.24 to 31.6
CC(=O)N1CCC(c2cc(C(F)(F)F)cc3[nH]ncc23)CC1 [Compound 99]	< 3.16	3.24 to 31.6
CS(=O)(=O)N1CCN(c2cc(C3CC3)cc3[nH]ncc23)CC1 [Compound 101]	3.24 to 31.6	> 100
C[C@@H]1CN(c2cc(Cl)cc3[nH]ncc23)C[C@@H](C)N1S(C)(=O)=O [Compound 102]	< 3.16	3.24 to 31.6
CC(=O)N1[C@H](C)CN(c2cc(Cl)cc3[nH]ncc23)C[C@H]1C [Compound 103]	< 3.16	> 100
Cn1ncc2c(N3CCN(S(C)(=O)=O)C(C)(C)C3)cc(Cl)cc21 [Compound 105]	> 100	32.4 to 100
CC(C)C(=O)N1CCN(c2cc(Cl)cc3[nH]ncc23)CC1 [Compound 108]	< 3.16	3.24 to 31.6
CC(C)(O)C(=O)N1CCN(c2cc(Cl)cc3[nH]ncc23)CC1 [Compound 111]	< 3.16	3.24 to 31.6
COCC(=O)N1CCN(c2cc(Cl)cc3[nH]ncc23)CC1 [Compound 112]	< 3.16	3.24 to 31.6
O=S(=O)(Cc1ccccc1)N1CCC(c2cc(Cl)cc3[nH]ncc23)CC1 [Compound 115]	< 3.16	3.24 to 31.6
O=C(N1CCN(c2cc(Cl)cc3[nH]ncc23)CC1)C1(O)CC1 [Compound 116]	< 3.16	3.24 to 31.6
CS(=O)(=O)N1CCC(O)(c2cc(Cl)cc3[nH]ncc23)CC1 [Compound 123]	< 3.16	3.24 to 31.6
CC(=O)N1CCN(c2cc(C3CC3)cc3[nH]ncc23)CC1(C)C [Compound 126]	< 3.16	3.24 to 31.6
CC1(C)CN(c2cc(C3CC3)cc3[nH]ncc23)CCN1S(C)(=O)=O [Compound 127]	< 3.16	3.24 to 31.6
CS(=O)(=O)N1CCN(c2cc(C3CCCC3)cc3[nH]ncc23)CC1 [Compound 131]	> 100	32.4 to 100
CC(=O)N1CCC(c2cc(C(F)(F)F)cc3[nH]ncc23)CC1(C)C (centres unmarked) [Compound 133]	< 3.16	< 3.16
C[C@@H]1CN(c2cc(Cl)cc3[nH]ncc23)C[C@H](C)N1S(C)(=O)=O [Compound 134]	< 3.16	< 3.16
CS(=O)(=O)N1CCN(c2cc(Cl)cc3[nH]nc(N)c23)CC1 [Compound 135]	32.4 to 100	3.24 to 31.6
CC(O)C(=O)N1CCN(c2cc(Cl)cc3[nH]ncc23)CC1 (centres unmarked) [Compound 136]	< 3.16	3.24 to 31.6
OCCNc1cc(Cl)cc2[nH]ncc12 [Compound 142]	3.24 to 31.6	> 100
CC(C)c1cc(N2CCN(S(C)(=O)=O)C(C)(C)C2)c2cn[nH]c2c1 [Compound 145]	< 3.16	3.24 to 31.6
CS(=O)(=O)N1CCN(c2cc(N3CCCC3)cc3[nH]ncc23)CC1 [Compound 146]	32.4 to 100	> 100
CC(=O)N1CCN(c2cc(C3CCCC3)cc3[nH]ncc23)CC1(C)C [Compound 149]	3.24 to 31.6	3.24 to 31.6
CNC(=O)N1CCC(c2cc(Cl)cc3[nH]ncc23)CC1 [Compound 150]	< 3.16	3.24 to 31.6
CC1(C)CC(c2cc(C(F)(F)F)cc3[nH]ncc23)CCN1S(C)(=O)=O (centres unmarked) [Compound 154]	< 3.16	3.24 to 31.6

More lines, now with the values ahead:

IC50 (TDO) [µM]	IC50 (IDO) [µM]	SMILES
< 3.16	< 3.16	CC(=O)N1CCN(c2cc(Br)cc3[nH]ncc23)CC1(C)C [Compound 90]
< 3.16	3.24 to 31.6	CS(=O)(=O)N1CCN(c2cc(Cl)cc3[nH]ncc23)CC12CC2 [Compound 94]
< 3.16	3.24 to 31.6	CS(=O)(=O)NCC1CCN(c2cc(Cl)cc3[nH]ncc23)CC1 [Compound 98]
< 3.16	3.24 to 31.6	CS(=O)(=O)N1CCC(c2cc(C(F)(F)F)cc3[nH]ncc23)CC1 [Compound 100]
3.24 to 31.6	32.4 to 100	CC(=O)N1CCN(c2cc(Cl)cc3c2cnn3C)CC1(C)C [Compound 104]
< 3.16	3.24 to 31.6	O=C(C1CC1)N1CCN(c2cc(Cl)cc3[nH]ncc23)CC1 [Compound 107]
< 3.16	3.24 to 31.6	CCC(=O)N1CCN(c2cc(Cl)cc3[nH]ncc23)CC1 [Compound 109]
< 3.16	3.24 to 31.6	NC(=O)N1CCN(c2cc(Cl)cc3[nH]ncc23)CC1 [Compound 110]
< 3.16	3.24 to 31.6	CC(=O)N1[C@H](C)CN(c2cc(Cl)cc3[nH]ncc23)C[C@@H]1C [Compound 113]
< 3.16	3.24 to 31.6	CNS(=O)(=O)N1CCN(c2cc(Cl)cc3[nH]ncc23)CC1 [Compound 114]
< 3.16	3.24 to 31.6	CN(C1CCN(c2cc(Cl)cc3[nH]ncc23)CC1)S(C)(=O)=O [Compound 117]
< 3.16	3.24 to 31.6	CC(C)(F)C(=O)N1CCN(c2cc(Cl)cc3[nH]ncc23)CC1 [Compound 118]
< 3.16	3.24 to 31.6	CN(C)S(=O)(=O)N1CCN(c2cc(Cl)cc3[nH]ncc23)CC1 [Compound 119]
> 100	3.24 to 31.6	CS(=O)(=O)N1CCN(c2cccc3c(N)noc23)CC1 [Compound 120]
3.24 to 31.6	> 100	CC(=O)N1CCN(c2cc(C3CC3)cc3[nH]ncc23)CC1 [Compound 121]
< 3.16	3.24 to 31.6	CN1CC2CN(c3cc(Cl)cc4[nH]ncc34)CCN2C1=O (centres unmarked) [Compound 122]
< 3.16	3.24 to 31.6	CS(=O)(=O)N1CCC(F)(c2cc(Cl)cc3[nH]ncc23)CC1 [Compound 124]
< 3.16	32.4 to 100	OC1CCCN(c2cc(Cl)cc3[nH]ncc23)C1 (centres unmarked) [Compound 125]

IC50 (TDO) [µM]	IC50 (IDO) [µM]	SMILES
< 3.16	3.24 to 31.6	CC(=O)N1CC=C(c2cc(Br)cc3[nH]ncc23)CC1 [Compound 128]
< 3.16	3.24 to 31.6	O=C(CO)N1CCN(c2cc(Cl)cc3[nH]ncc23)CC1 [Compound 129]
< 3.16	3.24 to 31.6	CN(CC1CCN(c2cc(Cl)cc3[nH]ncc23)CC1)S(C)(=O)=O [Compound 130]
< 3.16	3.24 to 31.6	CN(C)C(=O)N1CCC(c2cc(Cl)cc3[nH]ncc23)CC1 [Compound 132]
< 3.16	3.24 to 31.6	O=S(=O)(c1ccccc1)N1CCC(c2cc(Cl)cc3[nH]ncc23)CC1 [Compound 138]
32.4 to 100	> 100	CC(=O)N1CCN(c2cc(C3CCCC3)cc3[nH]ncc23)CC1 [Compound 139]
< 3.16	3.24 to 31.6	CCCS(=O)(=O)N1CCC(c2cc(Cl)cc3[nH]ncc23)CC1 [Compound 140]
< 3.16	3.24 to 31.6	CC(C)S(=O)(=O)N1CCC(c2cc(Cl)cc3[nH]ncc23)CC1 [Compound 141]
< 3.16	3.24 to 31.6	O=S(=O)(C1CCCC1)N1CCC(c2cc(Cl)cc3[nH]ncc23)CC1 [Compound 143]
< 3.16	< 3.16	CN1C(=O)NC2(CCN(c3cc(Cl)cc4[nH]ncc34)CC2)C1=O [Compound 144]
3.24 to 31.6	3.24 to 31.6	CC(=O)N1CCN(c2cc(C(C)C)cc3[nH]ncc23)CC1(C)C [Compound 147]
3.24 to 31.6	32.4 to 100	CC1(C)CN(c2cc(C3CCCC3)cc3[nH]ncc23)CCN1S(C)(=O)=O [Compound 148]
> 100	3.24 to 31.6	CS(=O)(=O)N1CCN(c2cc(Cl)cc3[nH]ncc23)c2ccccc21 [Compound 151]
3.24 to 31.6	> 100	OCCc1cc(Cl)cc2[nH]ncc12 [Compound 152]
< 3.16	32.4 to 100	CC(O)c1cc(Cl)cc2[nH]ncc12 (centres unmarked) [Compound 153]
3.24 to 31.6	32.4 to 100	CNCCNc1cc(Cl)cc2[nH]ncc12 [Compound 156]
> 100	32.4 to 100	CS(=O)(=O)N1CCN(c2cc(-c3ncco3)cc3[nH]ncc23)CC1 [Compound 157]
